Test results reported in US7282507B2, “Indole derivatives as selective androgen receptor modulators (SARMS)” (Janssen Pharmaceutica N.V., priority 2004, dated 2007).
Several values for one entry are separate records, joined by “and”; a condition that tells them apart may be missing. Equal values may be shown once.

Legend:
[1] = target: T1, androgen receptor (rat ventral prostate cytosol) (Rattus norvegicus, UniProt P15207); assay: Androgen Receptor Binding Using Rat Ventral Prostate Cytosol; conditions: for IC50: read-out: IC50 (nM), Androgen Receptor Binding (Rat Cytosol)
T1 construct: from tissue; host or cells: ventral prostate cytosol of castrated male Sprague Dawley or Wistar rats
T1 sequence (P15207 1-902): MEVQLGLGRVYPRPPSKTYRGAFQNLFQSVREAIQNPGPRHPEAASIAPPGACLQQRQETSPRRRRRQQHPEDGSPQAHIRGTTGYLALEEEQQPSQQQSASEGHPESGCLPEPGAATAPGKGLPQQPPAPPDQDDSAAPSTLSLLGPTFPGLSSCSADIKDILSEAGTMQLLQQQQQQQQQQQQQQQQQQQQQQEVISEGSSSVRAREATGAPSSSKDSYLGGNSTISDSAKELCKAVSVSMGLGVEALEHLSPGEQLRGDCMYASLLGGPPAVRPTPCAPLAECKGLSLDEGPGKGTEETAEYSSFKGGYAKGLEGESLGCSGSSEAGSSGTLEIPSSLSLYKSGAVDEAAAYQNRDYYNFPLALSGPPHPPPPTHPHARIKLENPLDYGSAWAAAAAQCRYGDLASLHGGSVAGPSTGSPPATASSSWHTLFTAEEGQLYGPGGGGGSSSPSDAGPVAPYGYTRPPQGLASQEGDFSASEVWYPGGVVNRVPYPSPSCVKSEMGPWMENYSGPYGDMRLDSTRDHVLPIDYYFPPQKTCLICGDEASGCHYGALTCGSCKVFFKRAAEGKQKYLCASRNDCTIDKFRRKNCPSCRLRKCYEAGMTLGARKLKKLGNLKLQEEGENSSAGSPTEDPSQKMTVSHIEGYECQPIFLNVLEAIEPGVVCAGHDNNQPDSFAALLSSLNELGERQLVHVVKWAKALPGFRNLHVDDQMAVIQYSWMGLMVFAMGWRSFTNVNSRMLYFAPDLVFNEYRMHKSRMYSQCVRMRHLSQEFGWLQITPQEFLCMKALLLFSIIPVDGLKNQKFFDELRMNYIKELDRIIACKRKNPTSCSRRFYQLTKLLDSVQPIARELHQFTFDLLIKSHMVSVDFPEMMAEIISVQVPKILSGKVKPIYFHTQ
Procedure: The assay was run on a 96 well plate with each well filled with a total reaction volume 150 μL, of a solution containing 5 pmol androgen receptor LBD (Panvera) or 30 μL of freshly prepared rat cytosol, 0.5 nM [^3H] […] (TED buffer contains 10 mM Tris.HCl pH 7.4, 1 mM sodium molybdate, 1.5 mM EDTA, 1 mM DTT and 10% (v/v) glycerol.)
On day one, the solution containing receptor, tracer and TED buffer was distributed into a 96 well plate. Diluted test compound or control vehicle was then added to individual wells and the plate incubated at 4° C. overnight.
On day two, to each well was then added 20 μL human γ-globulin (ICN 823102), prepared at 25 mg/ml in TE pH 8.0, and 55 μL 40% polyethylene glycol 8000 (J T Baker U222-08), prepared in TE pH 8.0. The plate was incubated at 4° C. for 60 minutes. During incubation, the harvester was rinsed with 10% PEG 8000, prepared in TE pH 8.0, and a GF/C Unifilter-96 was pre-wet with 10% PEG. The binding reaction was filtered, the retentate was washed three times with 10% PEG and dried under vacuum for a couple of minutes, then dried at 50° C. for 5 min and the plate was bottom sealed. Next, 25 μL of Microscint-20 (Packard) was added to the filter wells and the plate was top sealed. The plate wells were then counted on a TopCount (Packard).
Rat Prostate Cytosol Preparation:
Male Sprague Dawley or Wistar rats (Charles River, 200-300 g) were used for each preparation. The day before preparing the cytosol, the rats were castrated using standard surgical procedures.
The rats were euthanized by carbon dioxide asphyxiation. The rat prostates were quickly removed and placed on ice in pre-chilled, pre-weighed 50 mL plastic tubes. No more than five prostates were placed into one tube. The tubes were then weighed and the prostate tissue wet weights calculated.
To the chilled prostate tissue was then added […] of chilled homogenization buffer. The homogenization buffer was freshly prepared by mixing 10 mM Tris.HCl, pH 7.4, 1 mM sodium molybdate, 1.5 mM EDTA, 1 mM dithiothreitol, 10% (v/v) glycerol and 1% protease inhibitor cocktail (Sigma P 8340).
The prostate tissue was homogenized in a cold room using a pre-chilled Polytron PT3000 homogenizer (Brinkmann). Homogenization was performed at a speed setting of 20, three times for 10 sec bursts. The tubes containing the prostate tissue was kept on ice while homogenizing. The homogenate was allowed to rest on ice for 20 sec between bursts.
The homogenate was then placed into pre-chilled 3 mL polycarbonate ultracentrifuge tubes and centrifuged in the TLA-100 rotor of a TL-100 ultracentrifuge for 12 min at 100,000 rpm at 4° C. The resulting supernatant was stored in 1 mL aliquots at −80° C. until needed.
Binding to the androgen receptor was determined according to the protocol described in Example 86 using the above prepared rat cytosol.
% Inhibition was determined by testing dilutions of the test compound (usually duplicates of 10 μM) in the binding assay. Counts per well were measured and percents of inhibition determined. […] Counts per well were measured and IC50s determined by linear regression.

[2] = system: testosterone-enhanced ventral prostate and seminal vesicle weights; assay: Ventral Prostate and Seminal Vesicle Weight in vivo Assay; parameters: species or system rat; conditions: immature castrated male Sprague Dawley rats, once daily for five days, usually orally 40 mg/kg, with testosterone propionate 2 mg/kg s.c. Also: key: 'active' if the non weight adjusted prostate weight was ≦40 mg or the % Inhibition prostate weight, body weight adjusted was ≧40% @ 2 mg/day dosage; ID50's, if determined, of ≦15 mg/day also indicated an 'active' compound; listed herein as 'inactive' as they did not meet the specified criteria defined above.
Procedure: Immature (approximately 50 g) castrated male Sprague Dawley rats (Charles River) were treated once daily for five days with test compound (usually given orally at 40 mg/kg in a volume of 0.3 mL, in 30% cyclodextrin or 0.5% methylcellulose vehicle) and with testosterone propionate (given subcutaneously by injection at the nape of the neck at 2 mg/kg, in a volume of 0.1 mL in sesame oil). On the sixth day, the rats were euthanized by asphyxiation in carbon dioxide. Ventral prosatates and seminal vesicles were removed and their wet weights determined.
A test compound was said to be “active” if the non weight adjusted prostate weight was ≦40 mg or the % Inhibition prostate weight, body weight adjusted was ≧40% @ 2 mg/day dosage.

[3] = target: T2, androgen receptor (AdEasy+rAR, L929 cells) (Rattus norvegicus, UniProt P15207); assay: L929 Androgen Receptor Functional Assay, Adenovirus Transduction; assay type: cell-based; conditions: for % Activity, L929 androgen receptor functional assay / EC50: agonist testing; for % Inhibition, L929 androgen receptor functional assay: antagonist testing with R1881, 3000 nM; for inhibition at 3 µM: L929, antagonist testing with R1881, 3000 nM; for IC50: antagonist testing with R1881
T2 construct: expressed in transfected cells; host or cells: L929 cells transduced with adenovirus AdEasy+rAR
T2 sequence (P15207 1-902): T1 sequence (P15207 1-902)
Procedure: L929 cells were plated in 96-well plates at 20,000 cells per well, in DMEM/F12 (GIBCO) containing 10% (v/v) charcoal-treated fetal bovine serum (Hyclone) and lacking phenol red. The plates were then incubated overnight at 37° C. in 5% (v/v) humidified CO2.
Test compound dilutions were prepared in 100% (v/v) DMSO, if necessary. Each dilution was made to 1250× the final desired assay concentration.
First, 2 mL of DMEM/F12 lacking phenol red was pipetted into the wells of a 2-mL 96-well assay block. Next, 4 μL of the 1250× test compound dilutions were pipetted into each well of the assay block. The mixtures within the well were then carefully mixed by pipette.
In a 15 mL or 50 mL sterile centrifuge tube, a 2.5 nM (2.5×) dilution of R1881 (methyl-trienolone) in DMEM/F12 lacking phenol red was prepared.
In a second 15 mL or 50 mL centrifuge tube a solution containing an equal volume of DMEM to the first and an equal volume of 100% (v/v) DMSO to the volume of R1881 used in the first tube was prepared.
In a 15 mL or 50 mL sterile centrifuge tube, a dilution in DMEM/F12 of the adenovirus AdEasy+rAR at an moi of 1:500 per well was prepared.
The medium was removed from the 96-well plates by inversion and dried, inverted, very briefly. As soon as possible after medium removal, 40 μL of the diluted unlabeled test compound was added to each well, in duplicate. To each well designated for antagonist testing was added 40 μL of the 2.5 nM R1881 dilution to the wells for antagonist testing. To each well designated for agonist testing was added 40 μL of the DMSO dilution. Then 20 μL of the diluted adenovirus were added to all wells. The plates were incubated for 48 hours at 37° C. in 5% (v/v) humidified CO2.
To each well was added 100 μL of Steady-Glo luciferase assay substrate (Promega) and the plates were placed on a rotary shaker for 1 min. The plates were then incubated at room temperature in the dark for one hour. The contents of each well were then transferred to a white microtiter plate (Packard) and read on a Luminoskan Ascent (Thermo Lab Systems).
L929 AR percent activity was determined by testing dilutions of the test compound using a concentration of 3000 nM unless otherwise noted. L929 percent inhibition was determined by testing dilutions of the test compound using a concentration of 3000 nM. […] Luciferase activity per well were measured and EC50s and IC50s determined by linear regression.

| SMILES | active / inactive: inhibition of testosterone-enhanced prostate weight [2] | % Activity, L929 androgen receptor functional assay ([3]; 3000 nM) [%] | other results |
| --- | --- | --- | --- |
| Cc1ccc(CN2CCC(O)(c3cc4cc([N+](=O)[O-])c(C(F)(F)F)cc4[nH]3)CC2)cc1 [Compound 27] |  |  | IC50 [1]: 3100 nM |
| O=[N+]([O-])c1cc2cc(C3(O)CCN(Cc4ccc(F)cc4)CC3)[nH]c2cc1C(F)(F)F [Compound 37] |  |  | inhibition at 1 µM ([1]; Concentration 1000 nM, read-out: % Inhibition, Androgen Receptor Binding (Rat Cytosol)): 25%; IC50 [1]: 3600 nM |
| OC1(c2cc3cc(Cl)c(C(F)(F)F)cc3[nH]2)CCN(Cc2ccc(Cl)c(Cl)c2)CC1 [Compound 36] |  |  | % Inhibition, Androgen Receptor Binding (Rat Cytosol) ([1]; Concentration 1000 nM): −34%; IC50 [1]: > 100000 nM |
| CCSCC(C)(O)c1cc2cc(C#N)c(C(F)(F)F)cc2[nH]1 (centres unmarked) [Compound 218, 2-(2-Ethylsulfanyl-1-hydroxy-1-methyl-ethyl)-6-trifluoromethyl-1H-indole-5-carbonitrile] | inactive | 0 | % Inhibition, L929 androgen receptor functional assay ([3]; 3 µM): 62% |
| CSC(C)(O)c1cc2cc([N+](=O)[O-])c(C(F)(F)F)cc2[nH]1 (racemic) [Compound 267] | inactive |  | % Activity, L929 androgen receptor functional assay ([3]; 3000 nM, 3 µM): −5% and 0% |
| COc1cccc(CN2CCC(O)(c3cc4cc([N+](=O)[O-])c(C(F)(F)F)cc4[nH]3)CC2)c1 [Compound 39] |  |  | % Inhibition, Androgen Receptor Binding (Rat Cytosol) ([1]; Concentration 1000 nM, 1 µM): 6%; IC50 [1]: > 6100 nM |
| CC(O)(CS(=O)(=O)CC(F)(F)F)c1cc2cc([N+](=O)[O-])c(C(F)(F)F)cc2[nH]1 (racemic) [Compound 208] | active | 1 |  |
| COc1cccc(CN2CCC(O)(c3cc4cc(Cl)c(C(F)(F)F)cc4[nH]3)CC2)c1 [Compound 29] |  |  | % Inhibition, Androgen Receptor Binding (Rat Cytosol) ([1]; Concentration 1000 nM): −1.8%; IC50 [1]: 4700 nM |
| CCSCC(C)(O)c1cc2cc([N+](=O)[O-])c(C(F)(F)F)cc2[nH]1 (racemic) [Compound 221] | inactive | −1 |  |
| CCS(=O)(=O)CC(C)(O)c1cc2cc(C#N)c(C(F)(F)F)cc2n1C (racemic) [Compound 240] | inactive | 0 |  |
| CCSCC(O)(CC)c1cc2cc(C#N)c(C(F)(F)F)cc2[nH]1 (centres unmarked) [Compound 223] | active |  | inhibition at 3 µM [3]: 100%; EC50 [3]: > 8000 nM; % Activity, L929 androgen receptor functional assay ([3]; @ 8000 nM): 0 @ 8000 nM %; IC50 [3]: 277 nM |
| CSCCC(C)(O)c1cc2cc(Cl)c(C(F)(F)F)cc2[nH]1 (racemic) [Compound 51] | inactive | 2 |  |
| CC(O)(CSCc1ccco1)c1cc2cc([N+](=O)[O-])c(C(F)(F)F)cc2[nH]1 (racemic) [Compound 198] | inactive | 7 |  |
| CC[S+]([O-])CC(C)(O)c1cc2cc(C(F)(F)F)c([N+](=O)[O-])cc2[nH]1 (mixture of isomers) [Compound 230] | active | 0 |  |
| CC(O)(CS(=O)(=O)CC(F)(F)F)c1[nH]c2cc([N+](=O)[O-])c(C(F)(F)F)cc2c1Cl (centres unmarked) [Compound 207] | active |  | inhibition at 3 µM [3]: 101%; EC50 [3]: > 8000 nM; % Activity, L929 androgen receptor functional assay ([3]; 3000 nM, 3 µM): 1% and −1%; IC50 [3]: 492 nM; % Inhibition, L929 androgen receptor functional assay [3]: 101% |
| CCCSCC(C)(O)c1cc2cc(Cl)c(C(F)(F)F)cc2[nH]1 (racemic) [Compound 196] | inactive | 13 |  |
| CC[S+]([O-])CC(O)c1cc2cc([N+](=O)[O-])c(C(F)(F)F)cc2[nH]1 (mixture of isomers) [Compound 180] | inactive | 2 |  |
